Target: T1, CHEK1 (CHK1) (Homo sapiens, UniProt O14757)
T1 construct: purchased Thermo Fisher Scientific (Life Technologies) SelectScreen
Assay: SelectScreen Z'LYTE
Assay type: biochemical
Outline: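 SelectScreen broad panel; activity (Z'LYTE, Adapta) plus binding formats. ATP: Km app for CSF1R Z'LYTE; 10 for CAMK1 Adapta. Readout = % per kinase.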

T1 sequence (O14757 whole entry): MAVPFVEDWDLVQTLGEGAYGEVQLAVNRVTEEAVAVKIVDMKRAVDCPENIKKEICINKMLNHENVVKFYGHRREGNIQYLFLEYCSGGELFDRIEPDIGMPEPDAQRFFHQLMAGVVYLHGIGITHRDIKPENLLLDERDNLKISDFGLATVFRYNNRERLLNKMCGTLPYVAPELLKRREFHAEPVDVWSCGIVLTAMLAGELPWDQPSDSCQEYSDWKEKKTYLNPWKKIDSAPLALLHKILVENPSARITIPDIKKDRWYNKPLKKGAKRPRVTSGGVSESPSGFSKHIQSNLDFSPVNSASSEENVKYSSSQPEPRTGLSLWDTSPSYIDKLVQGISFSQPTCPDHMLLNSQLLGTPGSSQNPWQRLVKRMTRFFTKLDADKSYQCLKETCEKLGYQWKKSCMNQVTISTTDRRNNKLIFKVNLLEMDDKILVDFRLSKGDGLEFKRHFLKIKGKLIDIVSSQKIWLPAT

Q: With `CN(C(=O)CN1CCOCC1)c1ccc2sc3c(-c4cccc5c(=O)cc(N6CC7CCC(C6)O7)oc45)cccc3c2c1` [NU5455] as the molecule, how does the inhibition at 1 µM read?
A: The inhibition at 1 µM was 9.3%.

— PMC6934184, “Selective DNA-PKcs inhibition extends the therapeutic index of localized radiotherapy and chemotherapy” (The Journal of Clinical Investigation, 2019)
